{"source": "patent US7452865B2", "about": "“Antagonistic analogs of GH RH (2003)” (The Administrare's of the Tulane Educational Fund, priority 2004, dated 2008)", "key": {"IGF-II": {"test_system": "IGF-II", "test": "PC-3 xenografts, Experiment 1: tumor IGF-II (RIA)", "format": "in vivo, nude mice", "conditions": "10 μg/day s.c., 28 days", "excerpt": "(§1) For the measurement of GH and IGF-I levels in the serum, as well as IGF-I and IGF-II concentrations in the cytosol fraction of tumors, blood samples and tumor samples were collected and processed as described (Braczkowski R, Schally A V, Plonowski A, Varga J L, Groot K, Krupa M, Armatis P, Cancer 95: 1735-1745, 2002), hereby incorporated by reference. Briefly, blood samples are centrifuged to separate the serum, tumors are homogenized and centrifuged to separate the cytosol fraction. Serum GH is then measured by the double-antibody RIA method. Before measurement by RIA, IGF-I and IGF-II are extracted from serum and cytosol fractions using an acid-ethanol cryoprecipitation method that eliminates most of the IGF binding proteins, which can interfere with the RIA. IGF-I concentration is measured by RIA using IGF-I as a standard and goat anti-IGF-I antibody (both from DSL Inc., Webster, Tex.). IGF-II concentration is measured by RIA using human recombinant IGF-II (Bachem) as a standard and anti-IGF-II monoclonal antibody (Amano International Enzyme, Troy, Va.).\nMale nude mice were implanted s.c. with 3 mm^3 pieces of PC-3 human hormone-independent prostate cancer tissue on both flanks. When tumors reached a volume of approx. 50 mm^3, the mice were divided into 5 experimental groups with 7 to 8 animals in each group and received single daily injections for 28 days as follows: 1. Control (vehicle solution); 2. JV-1-38 (10 μg/day s.c.); 3 Peptide 31 (10 μg/day s.c.); 4. Peptide 67 (10 μg/day s.c.); 5. Peptide 62 (10 μg/day s.c.). Tumor volumes were measured twice a week. The experiment was ended on day 29 by sacrificing the mice under Isoflurane anesthesia. Resulting tumors were cleaned, weighed, and snap-frozen until further analyses. Trunk blood was collected from the abdominal aorta and serum was separated for RIA measurement of IGF-I. Statistical analyses of the measurement results were done by two-tailed t-test; data are presented as the means±S.E."}, "[1]": {"test_system": "GH-RH receptor isoforms on membrane fractions of human PC-3 prostate tumors", "format": "binding", "conditions": "general statement", "how_it_was_run": "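Competitive displacement of [^125I]JV-1-42 from crude membranes of human PC-3 prostate tumours grown as nude-mouse xenografts, with unlabelled peptides at 10^−12 to 10^−6 M. Bound radioactivity in the centrifuged pellet gamma-counted; Ki from Munson–Rodbard analysis. Relative affinity = Ki of reference peptide (JV-1-36 or JV-1-38) / Ki of test antagonist.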"}, "[2]": {"test_system": "DMS-153 human SCLC xenografts", "test": "DMS-153 human SCLC xenografts in nude mice: tumor growth", "format": "in vivo", "method": "(§2) Male nude mice were implanted s.c. with 3 mm^3 pieces of DMS-153 human SCLC tissue. When tumors reached a volume of approx. 100 mm^3 the mice were divided into 3 experimental groups of 68 animals each and received the following treatment for 6 weeks group 1 (control), vehicle solution; group 2, Peptide 67 (10 μg/day s.c.); group 3, Peptide 31 (10 μg/day s.c.). Tumor volumes were recorded twice a week. At the end of treatment, mice were anesthetized with isoflurane, killed by decapitation, trunk blood was collected for measurement of serum IGF-I, and tumors were excised and weighed. Data are presented as means±S.E. Data were evaluated by one way ANOVA and the Student-Newman-Keuls test."}, "[3]": {"test_system": "H-69 human SCLC xenografts", "test": "H-69 human SCLC xenografts in nude mice: tumor growth", "format": "in vivo", "conditions": "H-69", "method": "Male nude mice were implanted s.c. with 3 mm^3 pieces of H-69 human SCLC tissue. When tumors reached a volume of approx. 80 mm^3 the mice were divided into 4 experimental groups of 7-8 animals each and received the following treatment for 4 weeks: group I (control), vehicle solution; group 2, Peptide 67 (10 μg/day s.c.); group 3, Peptide 31 (10 μg/day s.c.); group 4, Peptide 72 (10 μg/day s.c.). Tumor volumes were recorded twice a week. At the end of treatment, mice were anesthetized with isoflurane, killed by decapitation, and tumors were excised and weighed. Data are presented as means±S.E. Data were evaluated by one way ANOVA and the Student-Newman-Keuls test."}, "[4]": {"test_system": "PC-3 human prostate cancer xenografts", "test": "PC-3 xenografts in nude mice, Experiment 1: tumor growth", "format": "in vivo", "how_it_was_run": "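Male nude mice carried s.c. PC-3 hormone-independent prostate tumour fragments on both flanks. Once tumours reached about 50 mm^3, groups of 7–8 mice received vehicle or peptide at 10 μg/day s.c. once daily for 28 days. Tumour volume was measured twice weekly, with tumour weight and serum IGF-I (RIA) taken at day 29; data are means ±S.E., two-tailed t-test.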"}, "mRNA for IGF-II": {"test_system": "mRNA for IGF-II", "test": "DMS-153 human SCLC xenografts: expression of mRNA for IGF-II", "format": "in vivo, nude mice", "conditions": "10 μg/day s.c., 6 weeks, control group 100±1.5%", "method": "as §2"}, "IGF-I [5]": {"test_system": "IGF-I", "test": "DMS-153 human SCLC xenografts: serum IGF-I", "format": "in vivo, nude mice", "conditions": "10 μg/day s.c., 6 weeks", "excerpt": "as §1, §2"}, "IGF-I [6]": {"test_system": "IGF-I", "test": "PC-3 xenografts, Experiment 1: serum IGF-I (RIA)", "format": "in vivo, nude mice", "conditions": "10 μg/day s.c., 28 days", "how_it_was_run": "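Male nude mice bearing s.c. PC-3 prostate tumors (~50 mm^3) given single daily s.c. injections, 10 μg/day, for 28 days, sacrificed day 29. IGFs acid-ethanol extracted from serum or tumor cytosol, then measured by RIA against IGF-I or recombinant human IGF-II standards.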"}, "[7]": {"conditions": "10 μg/day s.c., 6 weeks, vs control"}, "[8]": {"conditions": "10 μg/day s.c., 28 days, vs control"}}, "note": "Marks after values point to notes of the source that are not given here. Square brackets hold non-standard residues; d marks the D form. Peptide text beside a SMILES is read from it. * marks the point of attachment. Phe(4-amidino) = N=C(N)c1ccc(C[C@H](N)C(=O)O)cc1; Phe(4-Cl) = N[C@@H](Cc1ccc(Cl)cc1)C(=O)O; hArg = N=C(N)NCCCC[C@H](N)C(=O)O; Nle = CCCC[C@H](N)C(=O)O; Abu = CC[C@H](N)C(=O)O; PhAc = O=C(Cc1ccccc1)*"}
{"smiles": "CCCC[C@H](NC(=O)[C@@H](NC(=O)[C@H](CC(=O)O)NC(=O)[C@H](CCC(N)=O)NC(=O)[C@H](CC(C)C)NC(=O)[C@H](CC(C)C)NC(=O)[C@H](CCCCN)NC(=O)[C@H](CCCNC(=N)N)NC(=O)[C@H](C)NC(=O)[C@H](CO)NC(=O)[C@H](CC(C)C)NC(=O)[C@H](CCC(N)=O)NC(=O)[C@H](CC)NC(=O)[C@H](CC(C)C)NC(=O)[C@@H](NC(=O)[C@H](CCCCN)NC(=O)[C@H](CCCNC(=N)N)NC(=O)[C@H](Cc1ccc(OC)cc1)NC(=O)[C@H](Cc1ccc(C(=N)N)cc1)NC(=O)[C@H](CC(N)=O)NC(=O)[C@@H](NC(=O)[C@H](Cc1ccc(Cl)cc1)NC(=O)[C@@H](NC(=O)[C@H](C)NC(=O)[C@H](CC(=O)O)NC(=O)[C@@H](CCCNC(=N)N)NC(=O)[C@H](Cc1ccc(O)cc1)NC(=O)Cc1ccccc1)[C@@H](C)CC)[C@@H](C)O)C(C)C)[C@@H](C)CC)C(=O)N[C@H](CCCNC(=N)N)C(=O)N[C@@H](CCCCNC(=N)N)C(N)=O", "note": "[Peptide 67, [PhAc-Tyr^1, D-Arg^2, Phe(pCl)^6, Amp^9, Tyr(Me)^10, Abu^15, Nle^27, D-Arg^28, Har^29]hGH-RH(1-29)NH2] (PhAc-Y[dR]DAI[Phe(4-Cl)]TN[Phe(4-amidino)]Y(Me)RKVL[Abu]QLSARKLLQDI[Nle][dR][hArg]-NH2)", "values": [{"measurement": "Tumor IGF-II (pg/mg protein)", "setting": "IGF-II", "result": "139 ± 69.2", "unit": "pg/mg protein"}, {"measurement": "Tumor IGF-II (% inhibition)", "setting": "IGF-II; vs control", "result": "(37%)"}, {"measurement": "binding affinities to the tumoral receptors for GH-RH (in words)", "setting": "[1]", "result": "extremely high binding affinities"}, {"measurement": "Tumor volume (mm^3) Final", "setting": "[2]; 10 μg/day s.c., 6 weeks", "result": "2650 ± 30* mm^3"}, {"measurement": "Tumor weight", "setting": "[2]; 10 μg/day s.c., 6 weeks", "result": "1.60 ± 0.19", "unit": "g"}, {"measurement": "Tumor volume Final (% inhibition)", "setting": "[2]; [7]", "result": "(28%)"}, {"measurement": "Tumor weight (% inhibition)", "setting": "[2]; [7]", "result": "(31%)"}, {"measurement": "Tumor volume (mm^3) Initial", "setting": "[2]; at start of treatment", "result": "132 ± 24", "unit": "mm^3"}, {"measurement": "Tumor volume (mm^3) Final", "setting": "[3]; 10 μg/day s.c., 4 weeks", "result": "501 ± 35* mm^3"}, {"measurement": "Tumor volume Final (% inhibition)", "setting": "[3]; 10 μg/day s.c., 4 weeks, vs control", "result": "(76%)"}, {"measurement": "Tumor volume (mm^3) Initial", "setting": "[3]; at start of treatment", "result": "82 ± 10", "unit": "mm^3"}, {"measurement": "Tumor volume (mm^3) Final", "setting": "[4]; 10 μg/day s.c., 28 days", "result": "200 ± 39.5* mm^3"}, {"measurement": "Tumor volume doubling time", "setting": "[4]; 10 μg/day s.c., 28 days", "result": "17.0 ± 3.51", "unit": "days"}, {"measurement": "Tumor weight", "setting": "[4]; 10 μg/day s.c., 28 days", "result": "150 ± 22.1", "unit": "mg"}, {"measurement": "Tumor volume Final (% inhibition)", "setting": "[4]; [8]", "result": "(60%)"}, {"measurement": "Tumor weight (% inhibition)", "setting": "[4]; [8]", "result": "(60%)"}, {"measurement": "inhibitory effect on the growth of PC-3 tumors (in words)", "setting": "[4]; 10 μg/day s.c., compared with JV-1-38", "result": "stronger inhibitory effect on the growth of PC-3 tumors than the reference peptide JV-1-38"}, {"measurement": "Tumor volume (mm^3) Initial", "setting": "[4]; at start of treatment", "result": "46.8 ± 8.11", "unit": "mm^3"}, {"measurement": "level of expression of mRNA for IGF-II", "setting": "mRNA for IGF-II", "result": "78.0±44.3", "unit": "%"}, {"measurement": "Serum IGF-I", "setting": "IGF-I [5]", "result": "117.9 ± 17.2", "unit": "ng/mL"}, {"measurement": "Serum IGF-I (% inhibition)", "setting": "IGF-I [5]; vs control", "result": "(30%)"}, {"measurement": "Serum IGF-I", "setting": "IGF-I [6]", "result": "128 ± 10.6", "unit": "ng/mL"}, {"measurement": "Serum IGF-I (% inhibition)", "setting": "IGF-I [6]; vs control", "result": "(14%)"}]}
